Test results reported in CN103285022A, “用于制备治疗多囊卵巢综合征的中药单体组合物及其制备方法” (Second Military Medical University SMMU, priority 2013, dated 2013).

Key:
liver [肝脏] = format: in vivo, rat; conditions: for hepatotoxicity: conclusion, given together (27/200/100 mg/kg), 28 days
kidney [肾脏] = assay: Kidney histopathology / renal safety; format: in vivo, rat; conditions: conclusion; given together (27/200/100 mg/kg), 28 days
[1] = tested on: polycystic ovary syndrome rat model [多囊卵巢综合征大鼠模型]; assay: Oestrous cycle by vaginal exfoliative cytology, DHEA-induced PCOS rats; format: in vivo; conditions: oral gavage 28 days, then 10 days of vaginal cytology, combination 27/200/100 mg/kg, spironolactone 20 mg/kg
[2] = tested on: polycystic ovary syndrome rat model [多囊卵巢综合征动物模型]; assay: Ovarian wet weight and ovarian coefficient; format: in vivo; conditions: 28 days gavage; ovarian wet weight significantly lower than model group
CYP17 mRNA = assay: RT-PCR of ovarian tissue, CYP17 mRNA; format: in vivo, rat; conditions: vs model group, 28 days gavage
AR mRNA = assay: RT-PCR of ovarian tissue, AR mRNA; format: in vivo, rat; conditions: vs model group, 28 days gavage
3β-HSD mRNA = assay: RT-PCR of ovarian tissue, 3β-HSD mRNA; format: in vivo, rat; conditions: vs model group, 28 days gavage

SMILES	hepatotoxicity (liver [肝脏])	nephrotoxicity (kidney [肾脏])	sexual cycle recovery rate [1] [%]	increase of ovarian volume and wet weight in model rats, effect of treatment [2]	liver histopathology (liver [肝脏]; rat, in vivo)	CYP17 mRNA expression in ovarian tissue (CYP17 mRNA)	AR mRNA expression in ovarian tissue (AR mRNA)	3β-HSD mRNA expression in ovarian tissue (3β-HSD mRNA)
O=c1c(O)c(-c2ccc(O)c(O)c2)oc2cc(O)cc(O)c12 [槲皮素, 槲皮素(Quercetin)]	均不具有肝肾毒性	均不具有肝肾毒性						
CC(=O)S[C@@H]1CC2=CC(=O)CC[C@]2(C)[C@H]2CC[C@@]3(C)[C@@H](CC[C@@]34CCC(=O)O4)[C@H]12 [螺内酯, 螺内酯(Spironolactone)]			80	均可以逆转这种情况	个别出现肝细胞脂肪样变性,胞浆透明度增加,细胞胞浆不清,部分细胞核崩解,肝板破坏,汇管区增粗	显著降低	显著降低	显著降低
C[C@H]1COC2=C1C(=O)C(=O)c1c2ccc2c1CCCC2(C)C [隐丹参酮, 隐丹参酮(Cryptotanshinone)]	均不具有肝肾毒性	均不具有肝肾毒性						
O=C(O)[C@H]1O[C@@H](Oc2cc3oc(-c4ccccc4)cc(=O)c3c(O)c2O)[C@H](O)[C@@H](O)[C@@H]1O [黄芩苷, 黄芩苷(Baicalin)]	均不具有肝肾毒性	均不具有肝肾毒性						
